Measured values taken from ChEMBL document CHEMBL4602653, “Neuraminidase-triggered activation of prodrug-type substrate of 4-nitroaniline” (Bioorg Med Chem Lett, 2020).

How the values were obtained:
Format in all cases: ADME
Conditions in all cases: isolated protein, 6000 µM
[1] = Drug metabolism assessed as Clostridium perfringens neuraminidase-mediated drug decomposition resulting in formation of alpha-H3-(equitorial)-N-acetyl-neuraminic acid at 2.74 ppm at 6 mM measured over 10 hrs by 1H-NMR analysis
[2] = Drug metabolism assessed as Clostridium perfringens neuraminidase-mediated formation of para-quinone methide by measuring 4-hydroxy benzyl alcohol formation at 6.90 to 7.29 ppm at 6 mM measured after 10 hrs by 1H-NMR analysis
[3] = Drug metabolism assessed as Clostridium perfringens neuraminidase-mediated drug decomposition by measuring ratio of alpha-H3-(axial)-N-acetyl-neuraminic acid to beta-H3-(axial)-N-acetyl-neuraminic acid at 6 mM measured over 10 hrs by 1H-NMR analysis
[4] = Drug metabolism assessed as Clostridium perfringens neuraminidase-mediated formation of free N-acetyl-neuraminic acid at 6 mM measured after 75 hrs by 1H-NMR analysis
[5] = Drug metabolism assessed as Clostridium perfringens neuraminidase-mediated drug decomposition resulting in formation of alpha-H3-(axial)-N-acetyl-neuraminic acid at 1.62 ppm at 6 mM measured over 10 hrs by 1H-NMR analysis
[6] = Drug metabolism assessed as Clostridium perfringens neuraminidase-mediated drug decomposition by measuring ratio of alpha-H3-(equitorial)-N-acetyl-neuraminic acid to beta-H3-(equitorial)-N-acetyl-neuraminic acid at 6 mM measured over 10 hrs by 1H-NMR analysis
[7] = Drug metabolism assessed as Clostridium perfringens neuraminidase-mediated drug decomposition resulting in formation of beta-H3-(equitorial)-N-acetyl-neuraminic acid at 2.21 ppm at 6 mM measured over 10 hrs by 1H-NMR analysis
[8] = Drug metabolism assessed as Clostridium perfringens neuraminidase-mediated drug decomposition resulting in formation of alpha-H3-(axial)-N-acetyl-neuraminic acid at 1.83 ppm at 6 mM measured over 10 hrs by 1H-NMR analysis

CC(=O)N[C@H]1[C@H]([C@H](O)[C@H](O)CO)OC(Oc2ccc(COC(=O)Nc3ccc([N+](=O)[O-])cc3)cc2)(C(=O)O)C[C@@H]1O (stereo partly drawn)
Drug metabolism [1]: Metabolite_Detected
Drug metabolism [2]: Metabolite_Detected
Ratio [3]: 92.4
Drug metabolism [4]: Metabolite_Detected
Drug metabolism [5]: Metabolite_Detected
Ratio [6]: 7.6
Drug metabolism [7]: Metabolite_Detected
Drug metabolism [8]: Metabolite_Detected
